# According to patent publication US7728039B2, “Biphenyl and Naphthyl-Phenyl Hydroxamic Acid Derivatives” (Sigma-Tau Industrie Farmaceutiche Riunite S.p.A., priority 2005, dated 2010):
# Read-outs that look alike come from different tables or passages of the source.
# Assays:
# [1] = tested on: HCT-116 human colon carcinoma cells; experiment: Sulphorodamine B cytotoxicity test on HCT-116 cells; assay type: cell-based; conditions: Table 2, SRB, read-out: IC50 ± SD, HCT-116
# From the text: (§1) The cytotoxic effect of some biphenyl and phenylnaphthyl compounds bearing a hydroxamic acid group is reported herein. […] The chemical structures of the tested compounds of the invention and of the corresponding compounds bearing a carboxylic acid group are reported in FIG. 1. To test the effects of the compounds on cell growth, NB4 human promyelocytic leukaemia, NCI-H460 non-small cell carcinoma cells, H460/(R9A) (resistant to carboxylic acid-bearing compounds: ST1898, ST1926, ST1964), HCT-116 human colon carcinoma cells, IGROV-1 and IGROV-1/Pt (sensitive ovarian carcinoma and platinum-resistant ovarian carcinoma cells, respectively) were used. NB4 and NCI-H460 tumour cells were grown in RPMI 1640 containing 10% foetal bovine serum (GIBCO), HCT-116 tumour cells were grown in McCoy's 5A containing 10% foetal bovine serum (GIBCO), IGROV-1 and IGROV-1/Pt were grown in DMEM containing 10% foetal bovine serum (GIBCO),
# (§2) Tumour cells were seeded in 96-well tissue culture plates at approximately 10% confluence and were allowed to attach and recover for at least 24 h. Varying concentrations of the drugs were then added to each well to calculate their IC50 value (the concentration which inhibits the 50% of cell survival). The plates were incubated for 24 h at 37° C. At the end of the treatment, for NB4 tumour cells in suspension, the procedure was performed as follows: medium culture was removed by centrifugation of the plates at 1600×g for 10 min and the surnatant was removed. 250 μl PBS were added, then the plates were centrifuged at 1600×g for 10 min, the surnatant was removed. 200 μl/well of medium culture RPMI 1640 containing 10% FCS were added and the plates were incubated at 37° C. for other 48 h. The plates were centrifuged again at 1600×g for 10 min, the medium culture was removed and 200 μl PBS and 50 μl of cold 80% TCA were added. The plates were incubated on ice for at least 1 h. TCA was removed, the plates were washed 3 times for immersion in distilled-water and dried on paper and at 40° C. for 5 min. Then 200 μl of 0.4% sulphorodamine B in 1% acetic acid were added. The plates were incubated at room temperature for other 30 min. Sulphorodamine B was removed, the plates were washed for immersion in 1% acetic acid for 3 times, then they were dried on paper and at 40° C. for 5 min. Then 200 μl Tris 10 mM were added, the plates were kept under stirring for 20 min. The survival cell was determined as optical density by a Multiskan spectrofluorimeter at 540 nm. For the tumour cells in adhesion (NCI-H460 and HCT-116), the procedure was as above mentioned, except that at the end of the treatment, the plates were washed by remotion of the surnatant and addition of PBS 3 times without centrifugation. Also the last day of the assay, the surnatant was removed without centrifugation.
# (§3) The amount of cells killed was calculated as the percentage decrease in sulphorodamine B binding compared with control cultures. The IC50 values (the concentration which inhibits the 50% of cell survival) were calculated with the “ALLFIT” program.
# [2] = tested on: NCI-H460 non-small cell carcinoma cells; experiment: Sulphorodamine B cytotoxicity test on NCI-H460 cells; assay type: cell-based; conditions: SRB, read-out: IC50 ± SD, NCI-H460
# Method: The chemical structures of the tested compounds of the invention and of the corresponding compounds bearing a carboxylic acid group are reported in FIG. 1. […] NB4 and NCI-H460 tumour cells were grown in RPMI 1640 containing 10% foetal bovine serum (GIBCO), HCT-116 tumour cells were grown in McCoy's 5A containing 10% foetal bovine serum (GIBCO), IGROV-1 and IGROV-1/Pt were grown in DMEM containing 10% foetal bovine serum (GIBCO),
# as §2, §3
# [3] = tested on: IGROV-1 (sensitive ovarian carcinoma cells); experiment: Sulphorodamine B cytotoxicity test on IGROV-1 cells; assay type: cell-based; conditions: Table 2, SRB, read-out: IC50 ± SD, IGROV-1
# From the text: as §1, §2, §3
# [4] = tested on: NB4 human promyelocytic leukaemia; experiment: Sulphorodamine B cytotoxicity test on NB4 cells; assay type: cell-based; conditions: Table 4; NB4 tumour cells; compound alone; read-out: IC50 (μM ± SD)
# From the text: as §1, §2, §3
# [5] = tested on: IGROV-1/Pt (platinum-resistant ovarian carcinoma cells); experiment: Sulphorodamine B cytotoxicity test on IGROV-1/Pt cells; assay type: cell-based; conditions: Table 2, SRB, read-out: IC50 ± SD, IGROV-1/Pt
# From the text: as §1, §2, §3
# [6] = tested on: NCI-H460 R9A tumour cells (H460/(R9A), resistant to carboxylic acid-bearing compounds); experiment: Sulphorodamine B cytotoxicity test on ST1926-resistant NCI-H460 R9A cells; assay type: cell-based
# From the text: as §1, §2, §3
# The resistant tumour cell line NCI H460 R9A was a clone selected for the resistance to ST1926 (Table 3). To obtain the resistant tumour cell line, the sensitive NCI-H460 tumour cells were treated with 2 μM ST1926 for 24 hours and maintained in drug-free medium for a recovering time of 7 days. Then, survived cells were cultured applying a continuous selective pressure of 2 μM (10×IC50) ST1926. Resistant NCI-H460 cells were subculture for 3-4 times before increasing ST1926 concentration to 4 μM (20×IC50). Survived cells were seeded in 96-well plates to isolate resistant cells clones and maintained in complete medium with 4 μM of ST1926. The tumour cell line was maintained at least for one week, before seeding for SRB cytotoxicity assay, in drug-free medium.
# To evaluate the effect of the compound on survival cells, the sulphorodamine B test was used. […]
# [7] = tested on: NB4 promyelocytic leukaemia cells; experiment: Differentiation of NB4 tumour cells by nitroblue tetrazolium (NBT) reduction, with or without ATRA; assay type: cell-based, human; conditions: 3 days, NBT-reducing activity
# From the text: Relevant aspects of the differentiation program set in motion by ATRA in APL cells can be reproduced in primary cultures of leukemic blasts and in the derived NB4 cell line, which is a unique model for the study of the pharmacologic activity of ATRA and derivatives. Pharmacological concentrations of ATRA arrest the growth of NB4 blasts and differentiate them into cells that resemble mature neutrophils. This is followed by a slow process of apoptosis. […] In particular, the differentiation of NB4 tumour cells induced by the compounds was determined by nitroblue tetrazolium (NBT) reduction. NB4 promyelocytic leukaemia cells were seeded at a density of 150000 cells/ml in RPMI 1640 medium containing 10% FCS. To measure the cytodifferentiating effect of the molecules, tumour cells were treated with the compounds at different concentrations starting from at least 0.4 μM to 0.01 μM, whereas to measure the enhancing action of the molecules of ATRA activity, NB4 cells were treated with increasing concentrations of the molecules in the presence or absence of ATRA at a suboptimal concentration (5 nM).
# Tumour cells were incubated for 3 days at 37° C. without replacing the medium culture. To measure the prodifferentiative effect, 500,000 cells were collected, centrifuged and resuspended in 1 ml of RPMI 1640 medium containing 10% FCS, 1 mg/ml of nitroblue tetrazolium (NBT) and 100 ng of PMA (4-phorbol-12-myristate-13-acetate). The tumour cells resuspended were incubated at 37° C. for 60 min. At the end of the incubation, tumour cells were centrifuged and the pellet was resuspended in 1 ml of PBS containing Triton ×100 at 10%. The samples were sonicated and the absorbance was determined at 540 nm with a spectrophotometer. Differentiation of tumor cells as AC50 (activating concentration) was evaluated as the concentration of the compound giving 50% of the maximal induction of NBT-reducing activity with or without ATRA.
smiles,measurement,setting,value
"O=C(NO)c1ccc2cc(-c3ccc(O)c(C45CC6CC(CC(C6)C4)C5)c3)ccc2c1 [ST2142, 6-[3-1-(adamantyl)-4-hydroxyphenyl]-naphthalene-2-carboxylic acid N-hydroxyamide]",IC50,[1],2.9 ± 0.2 µM
same,IC50,"[2]; Table 2, NCI-H460",1 ± 0.06 µM
same,IC50,"[2]; Table 3, sensitive NCI-H460",1 ± 0.06 µM
same,IC50,[3],0.65 ± 0.1 µM
same,IC50,[4],2.4 ± 0.08 µM
same,IC50,[5],1.1 ± 0.03 µM
same,overcoming of resistance on H460/R9A,"[6]; H460/R9A versus sensitive NCI-H460, result in words",completely overcame the resistance
same,RI (resistance index),[6]; IC50 on resistant tumour cell line/IC50 on sensitive tumour cell line (NCI-H460 R9A / NCI-H460),2.2
same,IC50,"[6]; Table 3, resistant NCI-H460 R9A, SRB, read-out: IC50 ± SD, NCI-H460 R9A",2.2 ± 0.1 µM
same,AC50,[7]; combined with suboptimal ATRA (5 nM),0.31 µM
same,Differentiation AC50,[7]; compound alone (without ATRA),no differentiation
